Active and inactive are the calls of the source. The rule behind the calls is not given here.
What was measured:
[1] = biological target: Tyrosine-protein kinase FRK (Homo sapiens) (UniProt P42685); assay: Inhibition of PTK5 (unknown origin) at 1 uM in presence of ATP relative to control; values are per cent of control
NCI-H520 = assay: Inhibition of cell proliferation in human NCI-H520 cells upto 10 umol/L incubated for 72 hrs by DAPI staining based analysis; type: functional; conditions: dose <= 10.0 µmol/L
NCI-H292 = assay: Inhibition of cell proliferation in human NCI-H292 cells upto 10 umol/L incubated for 72 hrs by DAPI staining based analysis; type: functional; conditions: dose <= 10.0 µmol/L
[2] = biological target: Ephrin type-A receptor 7 (Homo sapiens) (UniProt Q15375); assay: Inhibition of EphA7 (unknown origin) at 1 uM in presence of ATP relative to control; values are per cent of control
[3] = biological target: Discoidin domain-containing receptor 2 (Homo sapiens) (UniProt Q16832); assay: Inhibition of DDR2 (unknown origin) at 1 uM in presence of ATP relative to control; values are per cent of control
[4] = biological target: Ribosomal protein S6 kinase alpha-2 (Homo sapiens) (UniProt Q15349); assay: Inhibition of Rsk3 (unknown origin) at 1 uM in presence of ATP relative to control; values are per cent of control
L-428 = assay: Inhibition of cell proliferation in human L428 cells upto 10 umol/L incubated for 72 hrs by DAPI staining based analysis; type: functional; conditions: dose <= 10.0 µmol/L
[5] = biological target: Cyclin-dependent kinase 1/cyclin B1 (Homo sapiens) (UniProt P06493+P14635); assay: Inhibition of CDK1/cyclinB (unknown origin) at 1 uM in presence of ATP relative to control; values are per cent of control
[6] = biological target: SRSF protein kinase 2 (Homo sapiens) (UniProt P78362); assay: Inhibition of SRPK2 (unknown origin) at 1 uM in presence of ATP relative to control; values are per cent of control
[7] = biological target: Calcium/calmodulin-dependent protein kinase type II subunit beta (Homo sapiens) (UniProt Q13554); assay: Inhibition of CAMK2b (unknown origin) at 1 uM in presence of ATP relative to control; values are per cent of control
SW1353 = assay: Inhibition of cell proliferation in human SW1353 cells upto 10 umol/L incubated for 72 hrs by DAPI staining based analysis; type: functional; conditions: dose <= 10.0 µmol/L
HMCB cell line = assay: Inhibition of cell proliferation in human HMCB cells upto 10 umol/L incubated for 72 hrs by DAPI staining based analysis; type: functional; conditions: dose <= 10.0 µmol/L
[8] = biological target: BDNF/NT-3 growth factors receptor (Homo sapiens) (UniProt Q16620); assay: Inhibition of TrkB (unknown origin) at 1 uM in presence of ATP relative to control; values are per cent of control
[9] = Inhibition of cell proliferation in MPRIP-NTRK1 fusion positive human CUTO-3 cells incubated for 72 hrs by DAPI staining based analysis; type: functional; conditions: CUTO-3, 72 h
[10] = biological target: LIM domain kinase 1 (Homo sapiens) (UniProt P53667); assay: Inhibition of LIMK1 (unknown origin) at 1 uM in presence of ATP relative to control; values are per cent of control
5637 = assay: Inhibition of cell proliferation in human 5637 cells upto 10 umol/L incubated for 72 hrs by DAPI staining based analysis; type: functional; conditions: dose <= 10.0 µmol/L
BFTC-905 = assay: Inhibition of cell proliferation in human BFTC-905 cells upto 10 umol/L incubated for 72 hrs by DAPI staining based analysis; type: functional; conditions: dose <= 10.0 µmol/L
[11] = biological target: Macrophage-stimulating protein receptor (Homo sapiens) (UniProt Q04912); assay: Inhibition of Ron (unknown origin) at 1 uM in presence of ATP relative to control; values are per cent of control
[12] = biological target: Insulin receptor-related protein (Homo sapiens) (UniProt P14616); assay: Inhibition of IRR (unknown origin) at 1 uM in presence of ATP relative to control; values are per cent of control
RT112/84 = assay: Inhibition of cell proliferation in human RT112/84 cells upto 10 umol/L incubated for 72 hrs by DAPI staining based analysis; type: functional; conditions: dose <= 10.0 µmol/L
[13] = biological target: Glycogen synthase kinase-3 alpha (Homo sapiens) (UniProt P49840); assay: Inhibition of GSK3alpha (unknown origin) at 1 uM in presence of ATP relative to control; values are per cent of control
[14] = biological target: Serine/threonine-protein kinase tousled-like 2 (Homo sapiens) (UniProt Q86UE8); assay: Inhibition of TLK2 (unknown origin) at 1 uM in presence of ATP relative to control; values are per cent of control
[15] = biological target: cGMP-dependent protein kinase 1 (Homo sapiens) (UniProt Q13976); assay: Inhibition of PRKG1alpha (unknown origin) at 1 uM in presence of ATP relative to control; values are per cent of control
T-24 = assay: Inhibition of cell proliferation in human T24 cells upto 10 umol/L incubated for 72 hrs by DAPI staining based analysis; type: functional; conditions: dose <= 10.0 µmol/L
CAL-27 = assay: Inhibition of cell proliferation in human CAL-27 cells upto 10 umol/L incubated for 72 hrs by DAPI staining based analysis; type: functional; conditions: dose <= 10.0 µmol/L
Caov-3 cell line = assay: Inhibition of cell proliferation in human Caov-3 cells upto 10 umol/L incubated for 72 hrs by DAPI staining based analysis; type: functional; conditions: dose <= 10.0 µmol/L
[16] = biological target: Serine/threonine-protein kinase D1 (Homo sapiens) (UniProt Q15139); assay: Inhibition of PKD1 (unknown origin) at 1 uM in presence of ATP relative to control; values are per cent of control
[17] = biological target: Phosphorylase b kinase gamma catalytic chain, liver/testis isoform (Homo sapiens) (UniProt P15735); assay: Inhibition of PhKgamma2 (unknown origin) at 1 uM in presence of ATP relative to control; values are per cent of control
[18] = biological target: Serine/threonine-protein kinase pim-3 (Homo sapiens) (UniProt Q86V86); assay: Inhibition of Pim-3 (unknown origin) at 1 uM in presence of ATP relative to control; values are per cent of control
[19] = biological target: AMP-activated protein kinase (AMPK) alpha-1/beta-1/gamma-1 (Homo sapiens) (UniProt P54619+Q9Y478+Q13131); assay: Inhibition of AMPK alpha1/beta1/gamma1 (unknown origin) at 1 uM in presence of ATP relative to control; values are per cent of control

LIM domain kinase 1 (Homo sapiens), sequence (P53667 whole entry, looked up, the tested form may be a part): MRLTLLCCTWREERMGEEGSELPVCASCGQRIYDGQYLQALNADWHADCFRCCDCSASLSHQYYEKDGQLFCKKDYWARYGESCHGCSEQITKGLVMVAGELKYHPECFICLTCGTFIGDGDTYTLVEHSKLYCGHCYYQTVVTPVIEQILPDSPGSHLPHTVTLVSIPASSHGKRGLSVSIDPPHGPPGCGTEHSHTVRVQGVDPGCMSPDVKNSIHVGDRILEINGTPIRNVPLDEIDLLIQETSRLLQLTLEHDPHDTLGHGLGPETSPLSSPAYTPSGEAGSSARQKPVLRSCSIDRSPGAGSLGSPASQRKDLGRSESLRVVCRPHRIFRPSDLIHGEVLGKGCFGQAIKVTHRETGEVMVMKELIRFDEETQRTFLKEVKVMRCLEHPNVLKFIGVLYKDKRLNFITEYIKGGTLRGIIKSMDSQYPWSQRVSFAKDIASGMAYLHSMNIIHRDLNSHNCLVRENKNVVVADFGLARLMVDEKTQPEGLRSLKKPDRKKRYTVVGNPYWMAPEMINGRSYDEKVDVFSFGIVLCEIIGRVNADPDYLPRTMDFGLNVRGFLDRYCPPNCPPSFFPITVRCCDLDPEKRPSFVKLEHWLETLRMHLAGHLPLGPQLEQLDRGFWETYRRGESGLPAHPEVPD
Macrophage-stimulating protein receptor (Homo sapiens), sequence (Q04912 25-304 limits assumed): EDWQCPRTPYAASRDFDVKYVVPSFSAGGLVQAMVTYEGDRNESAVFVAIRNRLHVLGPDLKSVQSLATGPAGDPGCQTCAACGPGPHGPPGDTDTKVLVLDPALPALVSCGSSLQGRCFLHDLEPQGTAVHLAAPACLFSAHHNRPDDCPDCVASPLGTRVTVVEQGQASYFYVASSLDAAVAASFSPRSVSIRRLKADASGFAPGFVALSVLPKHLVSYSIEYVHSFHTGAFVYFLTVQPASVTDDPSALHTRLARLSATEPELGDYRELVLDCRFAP
Macrophage-stimulating protein receptor (Homo sapiens), sequence (Q04912 310-1400 limits assumed): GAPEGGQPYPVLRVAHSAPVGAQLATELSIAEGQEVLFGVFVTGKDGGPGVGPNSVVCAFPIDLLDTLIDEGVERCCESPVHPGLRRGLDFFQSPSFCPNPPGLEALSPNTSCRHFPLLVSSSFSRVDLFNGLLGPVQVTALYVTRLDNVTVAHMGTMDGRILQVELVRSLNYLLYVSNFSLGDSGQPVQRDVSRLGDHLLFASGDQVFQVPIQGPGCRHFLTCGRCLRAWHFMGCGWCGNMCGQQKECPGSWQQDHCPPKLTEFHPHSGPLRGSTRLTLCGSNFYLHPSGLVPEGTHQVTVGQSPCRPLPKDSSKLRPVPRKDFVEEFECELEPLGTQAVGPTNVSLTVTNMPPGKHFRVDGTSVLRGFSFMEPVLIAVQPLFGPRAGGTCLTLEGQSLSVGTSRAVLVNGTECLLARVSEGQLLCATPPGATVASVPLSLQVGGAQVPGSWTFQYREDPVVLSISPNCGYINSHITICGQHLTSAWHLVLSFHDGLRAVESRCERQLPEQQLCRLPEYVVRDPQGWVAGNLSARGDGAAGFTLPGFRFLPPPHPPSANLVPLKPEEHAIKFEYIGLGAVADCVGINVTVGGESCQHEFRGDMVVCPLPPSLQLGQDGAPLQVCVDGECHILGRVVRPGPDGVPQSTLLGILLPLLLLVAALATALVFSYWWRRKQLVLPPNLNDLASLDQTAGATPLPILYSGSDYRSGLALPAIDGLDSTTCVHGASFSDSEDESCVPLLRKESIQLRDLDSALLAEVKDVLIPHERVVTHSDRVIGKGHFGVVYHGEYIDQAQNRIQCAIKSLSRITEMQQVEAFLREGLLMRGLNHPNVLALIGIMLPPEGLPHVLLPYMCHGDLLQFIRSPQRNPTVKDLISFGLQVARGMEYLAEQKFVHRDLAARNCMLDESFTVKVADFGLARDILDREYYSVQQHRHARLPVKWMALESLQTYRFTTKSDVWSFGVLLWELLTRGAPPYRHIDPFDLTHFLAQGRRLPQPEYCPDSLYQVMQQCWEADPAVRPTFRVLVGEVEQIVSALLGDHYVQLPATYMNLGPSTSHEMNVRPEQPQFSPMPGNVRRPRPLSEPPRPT
cGMP-dependent protein kinase 1 (Homo sapiens), sequence (Q13976 whole entry): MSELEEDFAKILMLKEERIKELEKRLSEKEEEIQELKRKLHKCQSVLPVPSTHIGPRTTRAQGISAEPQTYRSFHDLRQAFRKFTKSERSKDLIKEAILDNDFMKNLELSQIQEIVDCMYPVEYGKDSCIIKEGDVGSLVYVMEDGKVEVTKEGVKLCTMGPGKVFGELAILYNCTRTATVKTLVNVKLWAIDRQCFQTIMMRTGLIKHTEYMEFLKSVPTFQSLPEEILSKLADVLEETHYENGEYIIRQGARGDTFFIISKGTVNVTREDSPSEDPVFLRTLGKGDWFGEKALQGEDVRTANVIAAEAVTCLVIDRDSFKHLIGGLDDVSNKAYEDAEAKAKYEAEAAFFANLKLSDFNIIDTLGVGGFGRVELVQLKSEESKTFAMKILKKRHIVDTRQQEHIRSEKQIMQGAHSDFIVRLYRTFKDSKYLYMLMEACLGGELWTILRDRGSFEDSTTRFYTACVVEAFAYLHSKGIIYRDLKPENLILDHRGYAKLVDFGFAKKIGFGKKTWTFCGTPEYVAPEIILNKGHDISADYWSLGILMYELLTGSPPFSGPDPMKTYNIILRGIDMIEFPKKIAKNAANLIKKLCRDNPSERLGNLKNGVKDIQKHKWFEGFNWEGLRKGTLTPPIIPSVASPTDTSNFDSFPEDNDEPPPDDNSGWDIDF
Cyclin-dependent kinase 1/cyclin B1 (Homo sapiens), sequence (P06493 whole entry, looked up): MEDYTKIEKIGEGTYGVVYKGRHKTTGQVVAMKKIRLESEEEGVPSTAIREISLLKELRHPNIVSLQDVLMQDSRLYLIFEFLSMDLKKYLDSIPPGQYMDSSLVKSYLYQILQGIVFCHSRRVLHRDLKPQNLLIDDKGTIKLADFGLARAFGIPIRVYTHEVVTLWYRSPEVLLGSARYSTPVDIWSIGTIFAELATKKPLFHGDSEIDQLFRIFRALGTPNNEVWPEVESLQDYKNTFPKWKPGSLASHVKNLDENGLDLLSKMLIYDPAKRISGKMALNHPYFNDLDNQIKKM
Cyclin-dependent kinase 1/cyclin B1 (Homo sapiens), sequence (P14635 whole entry, looked up): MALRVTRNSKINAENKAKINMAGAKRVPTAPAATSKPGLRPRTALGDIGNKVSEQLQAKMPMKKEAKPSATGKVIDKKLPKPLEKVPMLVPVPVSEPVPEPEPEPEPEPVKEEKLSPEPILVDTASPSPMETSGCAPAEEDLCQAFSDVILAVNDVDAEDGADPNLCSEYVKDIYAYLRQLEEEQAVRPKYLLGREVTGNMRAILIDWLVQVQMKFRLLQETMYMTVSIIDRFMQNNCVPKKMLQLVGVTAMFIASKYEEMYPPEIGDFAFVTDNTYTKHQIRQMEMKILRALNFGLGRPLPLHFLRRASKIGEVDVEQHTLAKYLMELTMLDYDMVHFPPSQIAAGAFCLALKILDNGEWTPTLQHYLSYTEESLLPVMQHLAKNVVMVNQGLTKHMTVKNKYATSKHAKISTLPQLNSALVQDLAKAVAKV
Discoidin domain-containing receptor 2 (Homo sapiens), sequence (Q16832 whole entry, the tested form may be a part): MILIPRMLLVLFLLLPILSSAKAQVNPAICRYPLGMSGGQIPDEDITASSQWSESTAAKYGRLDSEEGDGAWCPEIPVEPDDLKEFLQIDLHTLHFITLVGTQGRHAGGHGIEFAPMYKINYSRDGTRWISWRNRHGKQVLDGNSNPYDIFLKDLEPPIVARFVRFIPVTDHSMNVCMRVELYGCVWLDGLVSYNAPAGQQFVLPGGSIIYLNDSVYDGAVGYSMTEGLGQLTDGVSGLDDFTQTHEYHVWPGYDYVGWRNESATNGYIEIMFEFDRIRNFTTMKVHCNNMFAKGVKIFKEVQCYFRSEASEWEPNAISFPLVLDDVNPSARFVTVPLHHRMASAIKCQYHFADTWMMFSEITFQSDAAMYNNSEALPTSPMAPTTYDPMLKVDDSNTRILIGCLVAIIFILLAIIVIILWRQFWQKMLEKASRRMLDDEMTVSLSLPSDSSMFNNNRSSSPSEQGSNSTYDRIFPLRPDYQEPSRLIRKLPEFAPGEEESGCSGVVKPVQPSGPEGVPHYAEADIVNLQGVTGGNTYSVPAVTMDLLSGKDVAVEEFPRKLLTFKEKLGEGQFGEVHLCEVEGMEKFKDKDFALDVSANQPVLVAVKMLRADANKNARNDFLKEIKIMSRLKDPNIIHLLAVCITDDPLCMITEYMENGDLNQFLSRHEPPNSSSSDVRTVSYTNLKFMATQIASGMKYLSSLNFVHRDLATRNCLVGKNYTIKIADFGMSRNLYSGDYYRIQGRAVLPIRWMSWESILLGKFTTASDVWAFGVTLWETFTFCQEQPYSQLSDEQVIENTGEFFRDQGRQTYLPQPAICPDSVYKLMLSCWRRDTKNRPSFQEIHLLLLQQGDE
SRSF protein kinase 2 (Homo sapiens), sequence (P78362 whole entry, looked up): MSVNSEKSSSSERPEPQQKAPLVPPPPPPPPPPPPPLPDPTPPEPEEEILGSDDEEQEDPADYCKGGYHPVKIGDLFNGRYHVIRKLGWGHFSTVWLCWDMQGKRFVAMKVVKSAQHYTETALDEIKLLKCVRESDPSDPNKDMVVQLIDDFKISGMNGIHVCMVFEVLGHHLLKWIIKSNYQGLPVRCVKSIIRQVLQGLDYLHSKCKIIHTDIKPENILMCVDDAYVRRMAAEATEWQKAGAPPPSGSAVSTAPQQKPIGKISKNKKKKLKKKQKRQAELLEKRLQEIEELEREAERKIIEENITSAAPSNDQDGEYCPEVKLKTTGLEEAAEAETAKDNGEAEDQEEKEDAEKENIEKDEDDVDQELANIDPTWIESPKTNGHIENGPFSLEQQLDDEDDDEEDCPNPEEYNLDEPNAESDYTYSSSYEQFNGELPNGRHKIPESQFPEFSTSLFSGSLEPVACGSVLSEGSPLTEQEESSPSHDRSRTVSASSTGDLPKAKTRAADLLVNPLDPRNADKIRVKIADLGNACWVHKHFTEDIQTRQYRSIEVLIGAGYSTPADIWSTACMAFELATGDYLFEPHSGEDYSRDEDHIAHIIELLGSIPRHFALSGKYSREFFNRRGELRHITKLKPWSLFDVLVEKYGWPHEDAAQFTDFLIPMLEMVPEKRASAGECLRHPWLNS

residual activity [1]: 87.5% | residual activity [2]: 103% | residual activity [3]: 93% | residual activity [4]: 106% | residual activity [5]: 102% | residual activity [6]: 93.5% | residual activity [7]: 100% | residual activity [8]: 0% | residual activity [10]: 85.5% | residual activity [11]: 88.5% | residual activity [12]: 111% | residual activity [13]: 117% | residual activity [14]: 108% | residual activity [15]: 110% | residual activity [16]: 106% | residual activity [17]: 104% | residual activity [18]: 103% | residual activity [19]: 96.5%
SMILES: C[C@@H]1CCc2ncc(F)cc2[C@H]2CCCN2c2ccn3ncc(c3n2)C(=O)N1 [SELITRECTINIB]
inhibition (NCI-H520): inactive | inhibition (NCI-H292): inactive | inhibition (L-428): inactive | inhibition (SW1353): inactive | inhibition (HMCB cell line): inactive | IC50 [9]: ≤ 5 nM | inhibition 5637: inactive | inhibition (BFTC-905): inactive | inhibition (RT112/84): inactive | inhibition (T-24): inactive | inhibition (CAL-27): inactive | inhibition (Caov-3 cell line): inactive
